Results reported in PMC3653948, “PDZ Domain-Mediated Interactions of G Protein-Coupled Receptors with Postsynaptic Density Protein 95: Quantitative Characterization of Interactions” (PLoS ONE, 2013).
Like-named read-outs stand apart in the source and are kept apart here. Peptide text beside a SMILES is read from it.

Assays:
Format in all cases: binding
PSD-95 PDZ2 = target: T1, PSD-95 PDZ2 (Homo sapiens, UniProt P78352); assay: FP competition assay, PSD-95 PDZ2 (probe Cy5-GluN2B); settings: read-out: K i PDZ2
T1 construct: PDZ2 (aa 155–249); made in house; host or cells: E. coli One Shot BL21 Star (DE3)
Experimental: (§1) FP measurements were performed in black, flat bottom 384-well NBS microplates (Corning) on a Synergy H4 microplatereader (BioTek Instruments) equipped with a 620/40 nm excitation filter, a 680/30 nm emission filter, and a 660 nm dichroic mirror. Polarization values were corrected with blank samples and samples with fluorescent probe alone. At least 10 data points were measured for each curve, and each data point was measured in triplicate. […] All FP measurements were performed in a buffer containing 10 mM HEPES pH 7.4, 150 mM NaCl, and 1% BSA and incubated at least 15 min at room temperature before reading. The signal was stable for more than an hour, showing that the reaction was at equilibrium.
(§2) For the competition binding curves, probe was mixed with a constant concentration of PDZ protein corresponding to the K d and a twofold dilution series of unlabeled peptide in a total volume of 30 µl. The baseline was determined using a sample containing only probe. The IC50 was determined by fitting to a 1∶1 binding model: Y = Ymax − Ymax × X/(X+IC50). The K i was calculated from the IC50 and from the K d for the interaction between the PDZ protein and the probe as described previously [38].

PSD-95 PDZ3 = target: T2, PSD-95 PDZ3 (Homo sapiens, UniProt P78352); assay: FP competition assay, PSD-95 PDZ3 (probe Cy5-CRIPT); settings: read-out: K i PDZ3
T2 construct: made in house; host or cells: E. coli One Shot BL21 Star (DE3)
Experimental: We used a competition set-up, where a constant concentration of isolated PSD-95 PDZ domain and a labeled reference ligand was titrated with unlabeled peptides from the GPCR C-tail library, typically within a 1–512 µM concentration range, and the resulting curves were fitted to obtain the IC50, which was used to calculate the K i (Figure 1). Three Cy5-labeled peptides with well-documented interactions with PSD-95 were used as reference ligands for the competition assay: Cy5-KIF1Bα was used for PDZ1 [20], Cy5-GluN2B (formerly known as NR2B) was used for PDZ2 and PDZ1-2 [21], and Cy5-CRIPT was used for PDZ3 [22] (Table S1). Competition with unlabeled versions of the reference ligands was used to validate the FP assay by comparison with the literature (Table S2).
FP measurements were performed in black, flat bottom 384-well NBS microplates (Corning) on a Synergy H4 microplatereader (BioTek Instruments) equipped with a 620/40 nm excitation filter, a 680/30 nm emission filter, and a 660 nm dichroic mirror. Polarization values were corrected with blank samples and samples with fluorescent probe alone. At least 10 data points were measured for each curve, and each data point was measured in triplicate. 25 nM Cy5-labeled probe was used for each assay: Cy5-KIF1Bα for PDZ1, Cy5-GluN2B for PDZ2 and PDZ1-2, and Cy5-CRIPT for PDZ3. All FP measurements were performed in a buffer containing 10 mM HEPES pH 7.4, 150 mM NaCl, and 1% BSA and incubated at least 15 min at room temperature before reading. The signal was stable for more than an hour, showing that the reaction was at equilibrium.
Saturation binding curves were used to determine the functionality of the PDZ domains by comparison with literature values and to calculate K i values from competition curves. Saturation binding curves were performed by mixing probe with a twofold dilution series of PDZ protein in a total volume of 30 µl. The K d was determined by fitting to a 1∶1 binding model: Y = Ymax × X/(X+K d).
For the competition binding curves, probe was mixed with a constant concentration of PDZ protein corresponding to the K d and a twofold dilution series of unlabeled peptide in a total volume of 30 µl. The baseline was determined using a sample containing only probe. The IC50 was determined by fitting to a 1∶1 binding model: Y = Ymax − Ymax × X/(X+IC50). The K i was calculated from the IC50 and from the K d for the interaction between the PDZ protein and the probe as described previously.

PSD-95 PDZ1 = target: T3, PSD-95 PDZ1 (Homo sapiens, UniProt P78352); assay: FP competition assay, PSD-95 PDZ1 (probe Cy5-KIF1Bα)
T3 construct: PSD-95 PDZ1 (aa 61–151); made in house; host or cells: E. coli One Shot BL21 Star (DE3)
Experimental: as §1, §2

[1] = 25 nM Cy5-KIF1Bα, 10 mM HEPES pH 7.4, 150 mM NaCl, 1% BSA, room temperature, at least 15 min, Ki ± fitting error, read-out: K i PDZ1
[2] = receptors binding to PDZ1 but not to PDZ2, read-out: K i PDZ1

Compound	Ki (PSD-95 PDZ2)	Ki (PSD-95 PDZ3)	Ki (PSD-95 PDZ1; [1])	Ki (PSD-95 PDZ1; [2])
CC(C)[C@H](NC(=O)[C@H](CCC(N)=O)NC(=O)[C@H](CCCNC(=N)N)NC(=O)[C@H](CC(=O)O)NC(=O)[C@H](CC(=O)O)NC(=O)[C@@H](N)Cc1ccc(O)cc1)C(=O)N1CCC[C@H]1C(=O)N[C@@H](Cc1ccccc1)C(=O)N[C@H](C(=O)N[C@@H](CCCCN)C(=O)N[C@H](C(=O)N[C@H](C(=O)N[C@H](C(=O)N[C@@H](Cc1ccccc1)C(=O)O)[C@@H](C)O)[C@@H](C)O)[C@@H](C)O)[C@@H](C)O [SSTR4 Mouse] (H-YDDRQVPFTKTTTF-OH)	420 ± 52 µM	> 1000 µM	> 1000 µM	–
CC(C)[C@H](NC(=O)[C@H](CC(N)=O)NC(=O)[C@@H](NC(=O)[C@H](C)NC(=O)[C@H](CCC(=O)O)NC(=O)[C@@H](NC(=O)[C@H](Cc1ccccc1)NC(=O)[C@H](CO)NC(=O)[C@H](CC(=O)O)NC(=O)[C@H](CC(N)=O)NC(=O)[C@H](CCCNC(=N)N)NC(=O)[C@H](CC(=O)O)NC(=O)[C@H](CC(=O)O)NC(=O)[C@@H](N)Cc1ccc(O)cc1)[C@@H](C)O)[C@@H](C)O)C(=O)O [Y2] (H-YDDRNDSFTEATNV-OH)	230 ± 14 µM	> 1000 µM	270 ± 22 µM	–
CC(C)C[C@H](NC(=O)[C@@H](NC(=O)[C@H](CO)NC(=O)[C@H](CO)NC(=O)[C@H](CO)NC(=O)[C@H](CCC(N)=O)NC(=O)[C@H](CCCCN)NC(=O)[C@H](Cc1ccc(O)cc1)NC(=O)[C@H](CC(=O)O)NC(=O)[C@H](CCCNC(=N)N)NC(=O)[C@H](CCCNC(=N)N)NC(=O)[C@H](CC(=O)O)NC(=O)[C@@H](N)CC(=O)O)[C@@H](C)O)C(=O)O [mGlu1(a)] (H-DDRRDYKQSSSTL-OH)	> 1000 µM	> 1000 µM	–	> 600 µM
CC[C@H](C)[C@H](NC(=O)[C@@H](NC(=O)[C@H](CC(C)C)NC(=O)[C@H](CC(N)=O)NC(=O)[C@H](CC(N)=O)NC(=O)[C@H](Cc1ccc(O)cc1)NC(=O)[C@H](CO)NC(=O)[C@@H](NC(=O)[C@H](Cc1ccc(O)cc1)NC(=O)[C@H](CCCCN)NC(=O)[C@H](CCCNC(=N)N)NC(=O)[C@H](CC(=O)O)NC(=O)[C@@H](N)CC(=O)O)C(C)C)C(C)C)C(=O)O [mGlu7(a)] (H-DDRKYVSYNNLVI-OH)	> 1000 µM	> 1000 µM	610 ± 51 µM	> 600 µM
CC(C)[C@H](NC(=O)[C@H](CCCCN)NC(=O)[C@H](CO)NC(=O)[C@H](CCC(=O)O)NC(=O)[C@H](CO)NC(=O)[C@H](C)NC(=O)[C@H](Cc1ccccc1)NC(=O)CNC(=O)[C@@H]1CCCN1C(=O)[C@H](CCCNC(=N)N)NC(=O)[C@H](CCCNC(=N)N)NC(=O)[C@H](CC(=O)O)NC(=O)[C@H](CC(=O)O)NC(=O)[C@@H](N)Cc1ccc(O)cc1)C(=O)O [β1AR] (H-YDDRRPGFASESKV-OH)	120 ± 20 µM	360 ± 82 µM	430 ± 47 µM	–
